Experimental data: patent US20240148747A1, “SMALL MOLECULE ACTIVATORS OF YAP TRANSCRIPTIONAL ACTIVITY FOR REGENERATIVE ORGAN REPAIR” (THE SCRIPPS RESEARCH INSTITUTE, priority 2021, published 2024)
Where two headings read alike, the source gives them in different places.

Tests used:
[1] = Cytotoxicity in the TEAD-LUC activation assay; settings: human
YAP = test: TEAD-LUC activation assay (293A-TEAD-LUC reporter); format: cell-based; settings: Homo sapiens, read-out: TEAD-LUC activation assay EC50

| SMILES | IC50 [1] [µM] | EC50 (YAP; Table 3) [µM] | EC50 (YAP; Table 4) [µM] |
| --- | --- | --- | --- |
| O=C(NCCCc1nccs1)c1n[nH]c2ccccc12 [Compound 84] | > 20 | > 20 |  |
| O=C(NCCCn1ccc(-c2ccccc2)c1)c1cc(-c2ccccc2)on1 [Compound 26] | > 20 | > 20 |  |
| CN(C)CCN(C)C(=O)c1cc(-c2ccccc2)on1 [Compound 58] | > 20 | > 20 |  |
| O=C(NCCCNc1cccc(F)c1)c1cc(-c2ccccc2)on1 [Compound 95] | > 20 | 2.5 |  |
| O=C(c1cc(-c2ccccc2)on1)N1CCC(n2cccc2)CC1 [Compound 115] | > 20 |  | > 20 |
| O=C(NCCc1nccs1)c1cc(-c2c(F)cccc2F)on1 [Compound 98] | > 20 | > 20 |  |
| O=C(NCCCN1CCCC1)c1cc(-c2ccccc2)on1 [Compound 5] | > 20 | > 20 |  |
| CCN1C(=O)NC(=O)C12CCN(C(=O)c1cc(-c3ccccc3)on1)CC2 [Compound 125] | > 20 |  | > 20 |
| CC(C)(CO)NC(=O)c1cc(-c2ccccc2)on1 [Compound 107] | > 20 |  | > 20 |
| O=C(NCCCN1CCN(C(=O)c2ccccc2)CC1)c1cc(-c2ccccc2)on1 [Compound 38] | > 20 | 3.34 |  |
| O=C(NC1CCCc2ccccc21)c1cc(-c2ccccc2)n[nH]1 (stereo not shown) [Compound 151] | > 20 |  | 10 |
| CC(C)(C)SCCNC(=O)c1cc(-c2ccccc2)on1 [Compound 51] | > 20 | > 20 |  |
| O=C(N[C@H]1C[C@@H]1n1cccc1)c1cc(-c2ccccc2)on1 [Compound 104] | > 20 | > 20 |  |
| O=C(NCCCn1cccc1)c1cc(-c2ccncc2)on1 [Compound 29] | > 20 | > 20 |  |
| O=C(NCCCNc1ccccc1F)c1cc(-c2ccccc2)on1 [Compound 85] | > 20 | > 20 |  |
| O=C(NCCCc1nccs1)c1noc2ccccc12 [Compound 34] | > 20 | > 20 |  |
| O=C(NCCc1nccs1)c1cc(-c2ccccc2)on1 [Compound 90] | > 20 | 2.5 |  |
| Cc1ccc(-c2cc(C(=O)NCCC(=O)N(C)Cc3ccccc3)no2)cc1 [Compound 119] | > 20 |  | > 20 |
| O=C(NCCCc1ncno1)c1cc(-c2ccccc2)on1 [Compound 28] | > 20 | 1.67 |  |
| O=C(NC12CC(F)(C1)C2)c1cc(-c2ccccc2)on1 [Compound 57] | > 20 | > 20 |  |
| Cc1nc(CCCNC(=O)c2cc(-c3ccccc3)on2)sc1C [Compound 142] | > 20 |  | 4.71 |
| CSCCNC(=O)c1cc(-c2ccccc2)on1 [Compound 61] | > 20 | 2.36 |  |

| SMILES | IC50 [1] [µM] | EC50 (YAP; Table 3) [µM] | EC50 (YAP; Table 4) [µM] |
| --- | --- | --- | --- |
| Cc1cccc(C)c1NC(=O)c1n[nH]c(=O)c2ccccc12 [Compound 150] | > 20 |  | 10 |
| O=C(NCCCn1ccnn1)c1cc(-c2ccc(F)cc2F)on1 [Compound 75] | > 20 | 10 |  |
| O=C(NCc1cccs1)c1cc(-c2ccccc2)on1 [Compound 54] | > 20 | > 20 |  |
| O=C(Nc1ccccc1-n1cncn1)c1cc(-c2ccccc2)on1 [Compound 143] | > 20 |  | > 20 |
| CN1C(=O)CCc2cc(NC(=O)c3ccncc3)ccc21 [Compound 146] | > 20 |  | 15 |
| Cc1ccc(-c2cc(C(=O)NCCCn3ccnn3)no2)cc1 [Compound 72] | > 20 | > 20 |  |
| O=C(NCCN1CCOCC1)c1cc(-c2ccc(F)cc2)on1 [Compound 136] | > 20 |  | 5.52 |
| O=C(NCCCN1CCOCC1)c1cc(-c2ccccc2F)on1 [Compound 100] | > 20 | 10 |  |
| O=C(NCCCn1cncn1)c1cc(-c2ccccc2)on1 [Compound 113] | > 20 |  | 3.25 |
| O=C(NCCCn1ccnn1)c1cc(-c2ccc(F)c(F)c2)on1 [Compound 79] | > 20 | > 20 |  |
| CC(=O)N1CCCN(C(=O)c2cc(-c3ccccc3)on2)CC1 [Compound 139] | > 20 |  | > 20 |
| O=C(NCCCn1cccn1)c1cc(-c2ccccc2)on1 [Compound 111] | > 20 |  | 1.6 |
| O=C(NCCCN1CCCCCC1=O)c1cc(-c2ccccc2)on1 [Compound 141] | > 20 |  | 3.97 |
| CC(C)(CNC(=O)c1cc(-c2ccccc2)on1)C(F)(F)F [Compound 43] | > 20 | > 20 |  |
| O=C(NC1CC(OC(F)F)C1)c1cc(-c2ccccc2)on1 (stereo not shown) [Compound 45] | > 20 | 3.17 |  |
| CC(=O)c1ccc(NC(=O)c2cc(-c3ccncc3)[nH]n2)cc1 [Compound 153] | > 20 |  | > 20 |
| O=C(NCCc1ccccc1)c1n[nH]c2ccccc12 [Compound 148] | > 20 |  | > 20 |
| Cc1c(C(=O)NCCCn2cccc2)noc1-c1ccccc1 [Compound 18] | > 20 | > 20 |  |
| CS(=O)(=O)c1ccc(-c2cc(C(=O)NCCCc3nccs3)no2)cc1 [Compound 39] | > 20 | > 20 |  |
| CCN1C(=O)CCc2cc(NC(=O)c3n[nH]c4ccccc34)ccc21 [Compound 145] | > 20 |  | 2 |
| O=C(NCCCn1ccnn1)c1cc(-c2cc(F)cc(F)c2)on1 [Compound 80] | > 20 | > 20 |  |
| Cc1ccc(CCNC(=O)c2cc(-c3ccccc3)on2)cc1 [Compound 48] | > 20 | > 20 |  |

| SMILES | IC50 [1] [µM] | EC50 (YAP; Table 3) [µM] | EC50 (YAP; Table 4) [µM] |
| --- | --- | --- | --- |
| COc1cccc(CCNC(=O)c2cc(-c3ccccc3)on2)c1 [Compound 53] | > 20 | > 20 |  |
| O=C(NCCCc1nccs1)c1cc(C(F)(F)F)ccn1 [Compound 91] | > 20 | 15 |  |
| Cc1ccc(-c2cc(C(=O)NCCC(=O)NC(C)C)no2)cc1C [Compound 116] | 1 |  | > 20 |
| NS(=O)(=O)c1ccc(-c2cc(C(=O)NCCCc3nccs3)no2)cc1 [Compound 42] | > 20 | > 20 |  |
| O=C(NCCCn1ccnn1)c1cc(-c2cncnc2)on1 [Compound 82] | > 20 | > 20 |  |
| O=C(NCCCn1ccnn1)c1cc(-c2ccc(F)cc2)on1 [Compound 70] | > 20 | 5 |  |
| O=C(NCCCn1cccc1)c1cc(-c2ccccc2)on1 [Compound 110] | > 20 |  | 1.02 |
| COC(=O)N1CCN(CCCNC(=O)c2cc(-c3ccccc3)on2)CC1 [Compound 41] | > 20 | 3.38 |  |
| O=C(NCCCn1cccc1)c1noc(-c2ccccc2)n1 [Compound 22] | > 20 | > 20 |  |
| O=C(NCCN1CCOCC1)c1cc(-c2ccccc2)on1 [Compound 122] | > 20 |  | 5.48 |
| O=C(NCCCn1nccn1)c1cc(-c2ccccc2)on1 [Compound 7] | > 20 | 1.13 |  |
| CC1CN(C(=O)CCNC(=O)c2cc(-c3ccccc3)on2)CC(C)O1 (stereo not shown) [Compound 124] | > 20 |  | 6.71 |
| S=C(NCCn1cccc1)c1cc(-c2ccccc2)on1 [Compound 106, N-(2-(1H-pyrrol-1-yl)ethyl)-5-phenylisoxazole-3-carbothioamide] | > 20 | > 20 |  |
| O=C(NCCNc1ccccc1)c1cc(-c2ccccc2)on1 [Compound 83] | > 20 | > 20 |  |
| O=C(NCCCc1nccs1)c1cc(-c2ccc(F)cc2F)on1 [Compound 89] | > 20 | 10 |  |
| O=C(NCCCn1ccnn1)c1cc(-c2ccc(C(F)(F)F)cc2)on1 [Compound 76] | > 20 | > 20 |  |
| COc1ccccc1-c1cc(C(=O)N2CCCC2c2cc(C)no2)no1 (stereo not shown) [Compound 109] | > 20 |  | > 20 |
| CN1C(=O)CCc2cc(NC(=O)c3n[nH]c4ccccc34)ccc21 [Compound 147] | > 20 |  | 2.5 |
| C[C@H](NC(=O)c1cc(-c2ccccc2)on1)c1ccc(Cl)cc1 [Compound 67] | > 20 | > 20 |  |
| O=C(NCCCn1cccc1)c1noc2c1OCc1ccccc1-2 [Compound 31] | > 20 | > 20 |  |
| COc1ccc(-c2cc(C(=O)NCCCn3ccnn3)no2)cc1 [Compound 73] | > 20 | > 20 |  |
